Test results from patent US20200281243A1, “DIETARY PRODUCT” (CANCER RESEARCH TECHNOLOGY LTD, priority 2017, published 2020).

Experiments:
[1] = Free amino acid quantification in blood serum using HPLC; assay type: in vivo, mouse; conditions: NSG mice; 60U L-asparaginase 5 times per week for 19 days
Procedure: (§1) All mouse experiments were approved by the Cold Spring Harbor Animal Care and Use Committee. The maximal permitted tumour size of 20 mm in any direction was never exceeded. All mouse injections were carried out with 6-8-week-old female NOD-SCID-112rg^−/− (NSG) mice (JAX). Balb/c mice were not used in this study as the different clonal cell lines have variable GFP levels due to the lentiviral barcode vector. Tail vein injections were carried out using 5×10^5 mouse mammary tumor cells, which were re-suspended in 100 ul of PBS and injected via tail vein. Orthotopic injections were performed using 1×10^5 mouse mammary tumor cells or 5×10^5 MDA-MB-231 cells. For this, cells were re-suspended in a 1:1 mix of PBS and growth factor reduced Matrigel (BD Biosciences). A volume of 20 ul was injected into the mammary gland #4 for mouse mammary tumor cells and a volume of 40 ul was injected for MDA-MB-231 cells. Primary tumor volume was measured using the formula V=½(L×W^2), where L is length and W is width of the primary tumor. […]
Free amino acids were quantified in cultured cells and blood serum. […] Each sample was quantified in triplicates using High Performance Liquid Chromatography (HPLC) and a flourometric detector. For each replicate, nanomoles of each amino acid was measured. […]

solid tumours = conditions: Tallal et al. 1970; cited from earlier work
Twist1 and E-cadherin = assay: IHC staining for Twist1 and E-cadherin in primary tumours; assay type: in vivo, mouse; conditions: primary tumours of mice treated with L-asparaginase
Procedure: as §1, with “A volume of 20 ul was injected into the mammary gland #4 for mouse mammary tumor cells and a volume of 40 ul was injected for MDA-MB-231 cells.” left out
For immunohistochemistry, primary tumors and lungs were processed as previously described in Wagenblast et al. 2015. […] Ecadherin and Twist1 diaminobenzidine-stained (DAB) and hematoxylin stainings were quantified using ImageJ (NIH). For this, images were color deconvoluted according to Ruifrok et al. 2001 and the percent area of E-cadherin and Twist1 positive staining was measured.

[2] = Metabolite profiling of mammary gland, serum and lungs by LC-MS/MS; assay type: in vivo, mouse; conditions: L-asparaginase treated animals
Procedure: as §1
Dried-down extracts were re-suspended in 25 ul HPLC-grade water, and 1 ul was analyzed using hydrophilic interaction chromatography (HILIC) coupled to tandem mass spectrometry analysis (LC-MS/MS). […] Metabolite differences were analyzed by normalizing samples to total peak area and comparing replicates for each group using one-way ANOVA with multiple comparisons.

parental 4T1 cells = assay: Orthotopic injection of parental 4T1 cells into NSG mice; assay type: in vivo, mouse; conditions: parental 4T1 orthotopic, 60U L-asparaginase 5 times per week for 19 days vs PBS
Procedure: as §1, with “tumor. For L-asparaginase studies, mice were administered 200 ul of 60U of L asparaginase 5× per week through intraperitoneal injections.” for “tumor.”
(§2) For each lung, five-micron sections were prepared and stained with a standard H&E protocol. Lung metastatic burden was determined by counting individual lung nodules on one section.

4T1-T cells = assay: Orthotopic injection of Asns-silenced or -expressing 4T1-T cells into NSG mice; assay type: in vivo, mouse; conditions: Asns-silenced 4T1 cells orthotopic; L-asparaginase treated mice
Procedure: as §1, with “tumor. For L-asparaginase studies, mice were administered 200 ul of 60U of L asparaginase 5× per week through intraperitoneal injections.” for “tumor.”
as §2

[3] = tested on: Asns-silenced 4T1-T cells; assay: mCherry competition assay, Asns-silenced cells; assay type: cell-based, mouse; conditions: media supplemented with asparagine
Procedure: (§3) For the mCherry competition assay, shRNA-transduced mCherry-positive cells were admixed with untransduced cells. mCherry fluorescence was quantified on the LSR II flow cytometer (BD Biosciences). The proliferation assay was carried out using the CellTrace Violet Cell Proliferation Kit (Thermo Fisher Scientific). For FIG. 3b and FIG. 9e, 4T1 and MDA-MB-231 cells were cultured in media containing 100× concentration of the specified amino acid (relative to the concentration in 1×NEAA) for 2 days or 3 days, respectively, before starting the proliferation assay. Cells were stained with CellTrace violet and then trypsinized and re-suspended in media. After 24 hours, cells were collected in order to quantify violet fluorescence intensity using the SH800 flow cytometer (Sony).

EMT-up genes = assay: RNAseq of EMT-up genes; assay type: cell-based, mouse; conditions: parental 4T1 cells grown in asparagine supplemented media
MDA-MB-231 cells = assay: CellTrace Violet proliferation assay, MDA-MB-231 cells; assay type: cell-based, human; conditions: asparagine supplementation, 24 hours
Procedure: as §3

4T1 cells [4] = assay: CellTrace Violet proliferation assay, parental 4T1 cells; assay type: cell-based, mouse; conditions: asparagine supplementation, 24 hours
Procedure: as §3

4T1 cells [5] = assay: Matrigel invasion assay, parental 4T1 cells; assay type: cell-based, mouse; conditions: media supplemented with asparagine (100× of 1×NEAA, 2 days), 24 h matrigel invasion
Procedure: (§4) The in vitro invasive capacity of cells was measured using 6-well BioCoat Matrigel invasion plates. For parental 4T1 cells, 1×10^6 cells were plated on individual wells, for 4T1-T cells, 8×10^5 cells were plated on individual wells and for MDA-MB-231 cells, 5×10^5 cells were used per individual well. Cells were resuspended in media without serum and cells invaded into media with 5% fetal bovine serum and 5% fetal calf serum. For FIG. 3b and FIG. 9e, 4T1 and MDA-MB-231 cells were cultured in media containing 100× concentration of the specified amino acid (relative to the concentration in 1×NEAA) for 2 days or 3 days, respectively, before starting the invasion assay. After 24 h, non-invaded cells were removed and the invasion wells were washed in PBS, fixed in 2% glutalaldehyde for 2 min and stained with 0.5% crystal violet for 10 min. The wells were washed in distilled H2O, air-dried and scanned using the Odyssey infrared scanner. The signal was quantified using ImageJ (NIH).

[6] = tested on: Asns-silenced 4T1-T cells; assay: Matrigel invasion assay, Asns-silenced cells; assay type: cell-based, mouse; conditions: media supplemented with asparagine
Procedure: as §4

EMT-up proteins = assay: iTRAQ proteomic profiling of EMT-up proteins; assay type: cell-based, mouse; conditions: parental 4T1 cells; media supplemented with asparagine
Excerpt: Cells were washed in ice cold PBS and harvested for iTRAQ quantitative proteomics as previously described in Ross et al. 2004. Three replicates were utilized for each cell line.

Compound: L-asparaginase
- serum asparagine (HPLC) [1]: undetectable
- treating solid tumours (solid tumours): ineffective
- Twist1 and E-cadherin expression (IHC) (Twist1 and E-cadherin): significant expression change
- asparagine in the serum (mass spectrometry) [2]: nearly undetectable
- primary tumour volumes (parental 4T1 cells): no significant difference
- metastatic burden (parental 4T1 cells; lung): significant reduction
- primary tumour volume (4T1-T cells): reduction
- resultant metastases (4T1-T cells): nearly undetectable

Compound: NC(=O)C[C@H](N)C(=O)O [asparagine]
- capacity to grow [3]: increased
- mRNA levels of EMT-up genes (EMT-up genes): increased
- growth (MDA-MB-231 cells): not impacted
- growth (4T1 cells [4]): not impacted
- increase in invasiveness (4T1 cells [5]): approximately 2 fold
- capacity to invade [6]: increased
- expression of EMT-up proteins (EMT-up proteins): increased in expression
